Experimental findings from patent US20260053767A1, “Hepatoprotective Compositions And Methods” (Jemyll, Ltd., priority 2022, published 2026) are described below.

In assay [1] the test system is Wistar rats. Kind of assay: Liver histology (H&E, red oil ORO, Sirius red) in rats on high fat/high cholesterol diet with or without DDA. The assay is classed as in vivo. The source says:
Animal Studies. All in vivo studies used Wistar rats that were kept for 9 weeks on a high fat/high cholesterol diet. The animals were then separated into two groups, a control group that continued the high fat/high cholesterol diet with regular water, whereas the treatment group continued the high fat/high cholesterol diet with water containing DDA (dodecanedioic acid) in an amount of 1% of the caloric intake. After all animals were separated in the respective test groups, body weights were recorded, and a glucose challenge test administered. […] Such effect is particularly unexpected as the quantity of DDA in the food was well below any quantity that was reasonably expected.
While not wishing to be bound by any specific theory or hypothesis, the inventors contemplate that the DDA at the low levels inhibits the trans-differentiation of hepatic stellate cells to myofibroblasts that produce extracellular matrix proteins (including collagen), likely by protecting them from damage due to reactive oxygen species (ROS).

Another assay relates to SIRT1. As to the kind of experiment: SIRT1 levels in liver cells. The assay is classed as cell-based. The conditions noted are these: AML-12 liver cells, 6 hours; p=0.127. The text has this:
(§1) To that end, the inventors used endothelial cells (EOMA cells) and liver cells (AML-12 cells) in vitro and quantified various markers in response to exposure of the cells to environmental challenge in the presence and absence of DDA at low concentrations. Unless indicated otherwise, the DDA concentration in the in vitro experiments was 5 mcg per microliter. More specifically, the inventors measured p-H2AX protein levels as a marker for DNA damage, PGC-1α protein levels as a marker for mitochondrial biogenesis, NAMPT enzyme levels as a marker for potential for NAD+ production, and total antioxidant capacity as a marker of cellular health. In addition, the inventors also measured global SIRT activity as a gauge of activity for all SIRT enzymes, and in particular SIRT1 enzyme levels as markers for autophagy and various beneficial processes associated with a caloric restricted diet, and SIRT3 levels as markers for mitochondrial function and longevity.
In still further experiments, the inventors also investigated whether or not DDDA could have stimulatory effects on selected SIRT proteins. More specifically, the inventors tested the effects of DDDA on SIRT3 and SIRT1, and exemplary results are shown in FIG. 9 and FIG. 10, respectively. […] N=5-6 plates per treatment. […] Beyond this trend, however, no other observations were evident. N=5-6 plates per treatment.

Assay [2] deals with endothelial cells (EOMA cells). As to the kind of experiment: Total antioxidant capacity in endothelial cells. The conditions noted are these: 24 hours, in the presence of hydrogen peroxide, p=0.001. The assay is classed as cell-based.
From the text: as §1
In yet a further series of experiments, the inventors also sought to confirm whether or not DDDA would have a modulatory effect in endothelial cells using the same markers and experimental conditions as noted above.
With respect to antioxidant capacity, FIG. 12 depicts exemplary results. […] N=5-6 plates per treatment.

In assay [3] the test system is Wistar rats. Kind of assay: Study 2 (reversal): oral glucose tolerance test and HOMA-IR. The class given is in vivo. The conditions noted are these: Study 2: 9 weeks high fat-high cholesterol diet, then 4 weeks treatment. Here is the method:
Study design: All animal procedures were approved by the Catholic University of Rome Institutional Animal Care Committee. The design of the studies is summarized in FIG. 18, Panels A and B. • Study 1: Twenty adult Wistar rats, aged 8-10 weeks, were included in the study. The rats were housed in individual cages at 22° C. with 12-h light cycles and had ad libitum access to food and water. Rats were fed a high-fat high-cholesterol diet (44% Carbohydrate, 14% Protein, 42% fat+0.2% Cholesterol) (Mucedola, Milan, IT) for four weeks in the presence or absence of 1% Dodecanedioic acid, sodium salt (w/vol) dissolved in the water (FIG. 18, Panel A). Body weight and food/water intake were monitored weekly. • Study 2: Twenty adult Wistar rats, aged 8-10 weeks, were included in the study. The rats were housed in individual cages at 22° C. with 12-h light cycles and had ad libitum access to food and water. Rats were fed a high-fat high-cholesterol diet (44% Carbohydrate, 14% Protein, 42% fat+0.2% Cholesterol) (Mucedola, Milan, IT). After nine weeks of diet, rats were randomly assigned to one of the following groups: Four weeks of high-fat high-cholesterol diet or four weeks of high-fat high-cholesterol diet and 1% Dodecanedioic acid, sodium salt (w/v) dissolved in the water FIG. 18, Panel B). Body weight and food/water intake were monitored weekly.
Oral Glucose Test Tolerance (OGTT): All animals underwent an OGTT at the end of the study. After an overnight fasting, the rats received a 50% D-glucose solution (1 g/kg body weight) by oral gavage. Blood samples were taken by tail bleeding and collected in EDTA tubes. All blood samples were immediately centrifuged, and plasma divided into appropriate subsamples and stored at −20° C. for further analysis. Blood glucose and was measured at 0, 20, 40, 60, 80, 100 and 120 minutes, while plasma insulin at 0, 60 and 120 minutes. Blood glucose levels were measured by glucometer (Accu-Chek, Roche Diagnostics Division, Grenzacherstrasse, CH). Plasma insulin was measured by ELISA (EMD Millipore Corporation, Billerica, MA), with a sensitivity of 0.1 ng/ml and an intra-and inter-assay precision of 1.9% and 7.6%, respectively.
DODA administration reverses insulin resistance and NASH: To assess if DODA could reverse the development of diet-induced insulin resistance and NASH, rats were first fed high fat high cholesterol diet for 9 weeks to develop insulin resistance and NASH. After 9 weeks of diet, DODA was administered for 4 weeks to assess insulin resistance and NASH reversal. Rats fed high fat high cholesterol diet without the administration of DODA were included as controls.
Panels A and B. • Study 1: Twenty adult Wistar rats, aged 8-10 weeks, were included in the study. The rats were housed in individual cages at 22° C. with 12-h light cycles and had ad libitum access to food and water. Rats were fed a high fat high cholesterol diet (44% Carbohydrate, 14% Protein, 42% fat+0.2% Cholesterol) for 4 weeks in the presence or absence of 1% Dodecanedioic acid, sodium salt dissolved in the water (FIG. 25, Panel A). Body weight and food/water intake were monitored weekly. • Study 2: Twenty adult Wistar rats, aged 8-10 weeks, were included in the study. The rats were housed in individual cages at 22° C. with 12-h light cycles and had ad libitum access to food and water. Rats were fed a high fat-high cholesterol diet (44% Carbohydrate, 14% Protein, 42% fat+0.2% Cholesterol). […] Body weight and food/water intake were monitored weekly. […]

Entries after “also recorded” stand apart in the source; their conditions may differ.

Take `O=C(O)CCCCCCCCCCC(=O)O` [DDDA, dodecanedioic acid]: in the assay with Wistar rats [1] (high fat/high cholesterol diet with DDA vs without), the “liver tissue morphology under H&E stain” value was “significantly closer to normal liver histology”. Also, the “fatty deposits in liver tissue, red oil (ORO) stain” value with Wistar rats [1] (high fat/high cholesterol diet with low quantities of DDA) is “normal or near-normal microscopic appearance”. Besides, the “fibrosis (Sirius red, hepatic collagen): rats without DDA compared to rats with DDA” value in the assay on Wistar rats [1] (high fat/high cholesterol diet, DDA at low concentrations) is on record as “significantly increased fibrosis as compared to those rats where the diet included DDA at low concentrations”. Further, the “hepatoprotective effect (histopathology, overall)” value in the assay with Wistar rats [1] (low concentration of DDA in high fat/high cholesterol diet) is given as “substantial hepatoprotective effect”. Moreover, the SIRT1 levels entry in the assay on SIRT1 is given as “trended upwards”. Moreover, the “cellular total antioxidant capacity” value in assay [2] is “maintained”. Also, in the assay with Wistar rats [3] (vs controls), the “blood glucose concentrations during an oral glucose tolerance test” value is “decrease”, the “insulin resistance as assessed by HOMA-IR” value was “reverse insulin resistance” and the “plasma insulin concentrations during an oral glucose tolerance test” value is given as “decrease”. Also, the “diet-induced insulin resistance and NASH (overall, reversal)” value with Wistar rats [3] (listed as C12) is “could reverse both diet-induced insulin resistance and NASH; also recorded: reverses diet-induced insulin resistance”. Moreover, the “diet-induced insulin resistance and NASH (overall, reversal)” value in the assay on Wistar rats [3] (listed as DODA) was “could reverse both diet-induced insulin resistance and NASH; also recorded: reverses diet-induced insulin resistance”.
